Reference: patent US20250230193A1, “CYCLIC COMPOUND HAVING SELECTIVE KRAS INHIBITORY EFFECT ON HRAS AND NRAS” (CHUGAI SEIYAKU KABUSHIKI KAISHA, priority 2022, published 2025)
Where a SMILES comes first, the peptide text is derived from it. Bridges are numbered along the chain shown (N, C = ends). [ ]: non-standard residue; d: D form. hPhe(3-Cl-4-CF3) = N[C@@H](CCc1ccc(C(F)(F)F)c(Cl)c1)C(=O)O; NPrPhe(4-CF3) = CCCN[C@@H](Cc1ccc(C(F)(F)F)cc1)C(=O)O; NMeGly(cPent) = CN[C@H](C(=O)O)C1CCCC1; Hyp = O=C(O)[C@@H]1C[C@@H](O)CN1; NMeL = CN[C@@H](CC(C)C)C(=O)O; Ac5c = NC1(C(=O)O)CCCC1; Aze = O=C(O)[C@@H]1CCN1; Ac4c = NC1(C(=O)O)CCC1; Sar = CNCC(=O)O

What was measured:
[1] = molecular target: GDP-bound NRAS wild-type protein (Homo sapiens, UniProt P01111); assay: Binding to NRAS by surface plasmon resonance (SPR), Single Cycle Kinetics; conditions: SPR; for NRAS/KRAS (ratio of KD value for GDP-bound NRAS wild-type protein to KD value for KRAS): KD ratio class
GDP-bound NRAS wild-type protein, sequence (P01111 whole entry): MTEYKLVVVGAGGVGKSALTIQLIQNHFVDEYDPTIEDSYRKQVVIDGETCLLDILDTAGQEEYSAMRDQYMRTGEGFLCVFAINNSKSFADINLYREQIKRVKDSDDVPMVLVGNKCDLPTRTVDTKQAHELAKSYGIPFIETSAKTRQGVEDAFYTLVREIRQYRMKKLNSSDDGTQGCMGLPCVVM

[2] = molecular target: GDP-bound HRAS wild-type protein (Homo sapiens, UniProt P01112); assay: Binding to HRAS by surface plasmon resonance (SPR), Single Cycle Kinetics; conditions: SPR; for HRAS/KRAS (ratio of KD value for GDP-bound HRAS wild-type protein to KD value for KRAS): KD ratio class
GDP-bound HRAS wild-type protein, sequence (P01112 whole entry): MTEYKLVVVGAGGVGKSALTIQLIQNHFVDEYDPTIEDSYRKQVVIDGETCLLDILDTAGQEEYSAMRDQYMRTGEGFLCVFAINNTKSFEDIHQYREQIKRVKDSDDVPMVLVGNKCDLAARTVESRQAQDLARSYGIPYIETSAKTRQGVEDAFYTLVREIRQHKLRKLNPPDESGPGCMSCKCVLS

[3] = KD ratio, GDP-bound NRAS wild-type vs GDP-bound KRAS wild-type
[4] = KD ratio, GDP-bound HRAS wild-type vs GDP-bound KRAS wild-type

## CC[C@H](C)[C@@H]1NC(=O)[C@H](CC(C)C)N(C)C(=O)C[C@@H](C(=O)N(C)C)N(C)C(=O)[C@H](C2CCCC2)N(C)C(=O)C2(CCC2)NC(=O)[C@@H]2C[C@H](C)CN2C(=O)[C@H](CCc2ccc(C(F)(F)F)c(Cl)c2)NC(=O)CN(C)C(=O)[C@H](Cc2ccc(C)cc2)N2CC/C=C\C[C@@H](C2=O)N(C)C(=O)CN(C)C1=O [PP1852]
[1]; [3]
  NRAS/KRAS (ratio of KD value for NRAS to KD value for KRAS): A (a compound having 10 or more and less than 20 is denoted as A)
[2]; [4]
  HRAS/KRAS (ratio of KD value for HRAS to KD value for KRAS): B (a compound having 3 or more and less than 10 is denoted as B)

## CCO[C@@H]1C[C@H]2C(=O)NC3(CCC3)C(=O)N(C)[C@@H](C3CCCC3)C(=O)N(C)[C@H](C(=O)N(C)C)CC(=O)N(C)[C@@H](CC)C(=O)N[C@@H]([C@@H](C)CC)C(=O)N(C)CC(=O)N(C)[C@H]3CC/C=C(/C)CN(C3=O)[C@@H](Cc3ccc(C(F)(F)F)cc3)C(=O)N(C)CC(=O)N[C@@H](CCc3cc(F)c(C(F)(F)F)c(F)c3)C(=O)N2C1 [PP1334]
[1]
  NRAS/KRAS (ratio of KD value for GDP-bound NRAS wild-type protein to KD value for KRAS): B (a compound having 3 or more and less than 10 is denoted as B)
[2]
  HRAS/KRAS (ratio of KD value for GDP-bound HRAS wild-type protein to KD value for KRAS): B (a compound having 3 or more and less than 10 is denoted as B)

## CCCN1C(=O)CN(C)C(=O)[C@@H]2CCN2C(=O)[C@H]([C@@H](C)CC)NC(=O)[C@H](CC(C)C)N(C)C(=O)C[C@@H](C(=O)N(C)C)NC(=O)[C@H](C2CCCC2)N(C)C(=O)C2(CCCC2)NC(=O)[C@@H]2C[C@@H](OCC)CN2C(=O)[C@H](CCc2ccc(C(F)(F)F)c(Cl)c2)NC(=O)CN(C)C(=O)[C@@H]1Cc1ccc(C(F)(F)F)cc1 [PP0377] ([NMeL]I[Aze][Sar][NPrPhe(4-CF3)][Sar][hPhe(3-Cl-4-CF3)][Hyp](Et)[Ac5c][NMeGly(cPent)]D-NMe2; lactam N-11)
[1]; KD ratio NRAS/KRAS
  NRAS/KRAS (ratio of KD for GDP-bound NRAS wild-type to KD for KRAS): B (a compound having 3 or more and less than 10 is denoted as B)
[2]; KD ratio HRAS/KRAS
  HRAS/KRAS (ratio of KD for GDP-bound HRAS wild-type to KD for KRAS): C (A compound having a KD ratio of 0.1 or more and less than 3 is denoted as C)

## C=CC[C@@H]1NC(=O)[C@H](CC2CC2)N(C)C(=O)C[C@@H](C(=O)N(C)CC=C)N(C)C(=O)[C@H](C2CCCC2)N(C)C(=O)C2(CCC2)NC(=O)[C@@H]2C[C@@H](OCC)CN2C(=O)[C@H](CCc2cc(F)c(C(F)(F)F)c(F)c2)NC(=O)CN(C)C(=O)[C@H](Cc2ccc(C(F)(F)F)cc2)N2CC/C=C\C[C@@H](C2=O)N(C)C(=O)CN(C)C1=O [PP1557]
[1]
  NRAS/KRAS (ratio of KD value for GDP-bound NRAS wild-type protein to KD value for KRAS): A (a compound having 10 or more and less than 20 is denoted as A)
[2]
  HRAS/KRAS (ratio of KD value for GDP-bound HRAS wild-type protein to KD value for KRAS): A (a compound having 10 or more and less than 20 is denoted as A)

## CCO[C@@H]1C[C@H]2C(=O)NC3(CCC3)C(=O)N(C)[C@@H](C3CCCC3)C(=O)N[C@H](C(=O)N(C)C)CC(=O)N(C)[C@@H](CC)C(=O)N[C@@H]([C@@H](C)CC)C(=O)N(C)CC(=O)N(C)[C@H]3C/C=C\CCN(C3=O)[C@@H](Cc3ccc(C(F)(F)F)cc3)C(=O)N(C)CC(=O)N[C@@H](CCc3cc(F)c(C(F)(F)F)c(F)c3)C(=O)N2C1 [PP1094]
[1]; [3]
  NRAS/KRAS (ratio of KD value with respect to NRAS to KD value with respect to KRAS): A (a compound having 10 or more and less than 20 is denoted as A)
[2]; [4]
  HRAS/KRAS (ratio of KD value with respect to HRAS to KD value with respect to KRAS): B (a compound having 3 or more and less than 10 is denoted as B)

## CC[C@H](C)[C@@H]1NC(=O)[C@H](C)N(C)C(=O)C[C@@H](C(=O)N(C)C)N(C)C(=O)[C@H](C2CCCC2)N(C)C(=O)C2(CCCC2)NC(=O)[C@@H]2CC(F)(F)CN2C(=O)[C@H](CCc2cc(F)c(C(F)(F)F)c(F)c2)NC(=O)CN(C)C(=O)[C@H](Cc2ccc(C(F)(F)F)cc2)N2CCCCC[C@@H](C2=O)N(C)C(=O)CN(C)C1=O [PP0472]
[1]; KD ratio NRAS/KRAS
  NRAS/KRAS (ratio of KD value with respect to GDP-bound NRAS wild-type protein to KD value with respect to KRAS): B (a compound having 3 or more and less than 10 is denoted as B)
[2]; KD ratio HRAS/KRAS
  HRAS/KRAS (ratio of KD value with respect to GDP-bound HRAS wild-type protein to KD value with respect to KRAS): B (a compound having 3 or more and less than 10 is denoted as B)

## CCCN1C(=O)CN(C)C(=O)CNC(=O)[C@H]([C@@H](C)CC)NC(=O)[C@H](CC(C)C)N(C)C(=O)C[C@@H](C(=O)N(C)C)NC(=O)[C@H](C2CCCC2)N(C)C(=O)C2(CCC2)NC(=O)[C@@H]2CCCN2C(=O)[C@H](CCc2ccc(C(F)(F)F)c(Cl)c2)NC(=O)CN(C)C(=O)[C@@H]1Cc1ccc(C(F)(F)F)cc1 [PP0362] ([NMeL]IG[Sar][NPrPhe(4-CF3)][Sar][hPhe(3-Cl-4-CF3)]P[Ac4c][NMeGly(cPent)]D-NMe2; lactam N-11)
[1]; KD ratio NRAS/KRAS
  NRAS/KRAS (ratio of KD for GDP-bound NRAS wild-type to KD for KRAS): B (a compound having 3 or more and less than 10 is denoted as B)
[2]; KD ratio HRAS/KRAS
  HRAS/KRAS (ratio of KD for GDP-bound HRAS wild-type to KD for KRAS): B (a compound having 3 or more and less than 10 is denoted as B)
